Reference: US8088788B2, “Substituted fused[1,2] imidazo[4,5-c] ring compounds and methods” (3M Innovative Properties Company, priority 2006, dated 2012)

| melting point [°C] | Compound |
| --- | --- |
| 241 to 243 | CC1CCc2nc3c(N)nc4ccccc4c3n2N1 (stereo not drawn) [Example 24, 10-Methyl-8,9,10,11-tetrahydropyridazino[1′,6′:1,2]imidazo[4,5-c]quinolin-6-amine] |
| 272 to 274 | C[C@@H]1CNc2nc3c(N)nc4ccccc4c3n21 [Example 28, (10R)-10-Methyl-9,10-dihydro-8H-imidazo[1′,2′:1,2]imidazo[4,5-c]quinolin-6-amine] |
| 204 to 206 | Cc1ccc(S(=O)(=O)n2ccc3nc4c(N)nc5ccccc5c4n32)cc1 [Example 25, 10-[(4-Methylphenyl)sulfonyl]-10H-pyrazolo[1′,5′:1,2]imidazo[4,5-c]quinolin-6-amine] |
| 273 to 276 | Nc1nc2cc(Br)ccc2c2c1nc1n2CCCO1 [Example 7, 3-Bromo-10,11-dihydro-9H-[1,3]oxazino[3′,2′:1,2]imidazo[4,5-c]quinolin-6-amine] |
| 265 to 273 | C[C@H]1CNc2nc3c(N)nc4ccccc4c3n21 [Example 27, (10S)-10-Methyl-9,10-dihydro-8H-imidazo[1′,2′:1,2]imidazo[4,5-c]quinolin-6-amine] |
| > 250 | Nc1nc2ccccc2c2c1nc1n2CCCN1 [Example 5, 8,9,10,11-Tetrahydropyrimido[1′,2′:1,2]imidazo[4,5-c]quinolin-6-amine] |
